In ChEMBL document CHEMBL1151604, “Enantiomerically pure synthesis and antiviral evaluation of [(2S, 3S)-bis(hydroxymethyl)azetidin-1-yl] purine nucleosides: Analogs of oxetanocin-A” (Bioorg Med Chem Lett, 1995):
≈ marks a conversion by molar mass, not a printed value.

Assays:
Format in all cases: functional, cell-based
Vero [1] = assay: Compound was evaluated for cytotoxicity against vero cells up to a concentration of 100 ug/mL; non toxic; conditions: Chlorocebus sabaeus
Vero [2] = assay: In vitro evaluation of antiviral activity against HSV-2 (Herpes simplex virus-2) induced cytopathic effect in vero cells by a plaque reduction assay; conditions: Chlorocebus sabaeus
Vero [3] = assay: In vitro evaluation of antiviral activity against HSV-1 (Herpes simplex virus-1) induced cytopathic effect in vero cells by a plaque reduction assay; conditions: Chlorocebus sabaeus
MT4 = assay: In vitro evaluation of antiviral activity against HSV-1 (Herpes simplex virus-1) induced cytopathic effect in MT-4 cells by indirect immunofluorescence assay; conditions: Homo sapiens

SMILES | Activity (Vero [1]) | EC50 (Vero [2]) [µg/mL] | EC50 (Vero [3]) [µg/mL] | EC50 (MT4) [µg/mL]
Nc1nc(O)c2ncn(N3CC(CO)C3CO)c2n1 (configuration not stated) | Not toxic | 6.32 (≈ 23.7 µM) | 5.36 (≈ 20.1 µM) | 0.46 (≈ 1.73 µM)
Nc1nc2c(ncn2COCCO)c(=O)[nH]1 [ACYCLOVIR] | – | 0.39 (≈ 1.73 µM) | 0.32 (≈ 1.42 µM) | –
O=c1[nH]cnc2c1ncn2[C@H]1CC[C@@H](CO)O1 [DIDANOSINE] | – | – | – | 0.46 (≈ 1.95 µM)
Nc1ncnc2c1ncn2N1CC(CO)C1CO (configuration not stated) | Not toxic | 34.9 (≈ 139 µM) | 33.2 (≈ 133 µM) | 0.37 (≈ 1.48 µM)
Cc1cn([C@H]2C[C@H](N=[N+]=[N-])[C@@H](CO)O2)c(=O)[nH]c1=O [ZIDOVUDINE] | – | – | – | 0.0032 (≈ 0.012 µM)
